Molecular target: T1, human GR (Homo sapiens, UniProt P04150)
T1 construct: naturally expresses the human GR; endogenous in cells
T1 sequence (P04150 1-777): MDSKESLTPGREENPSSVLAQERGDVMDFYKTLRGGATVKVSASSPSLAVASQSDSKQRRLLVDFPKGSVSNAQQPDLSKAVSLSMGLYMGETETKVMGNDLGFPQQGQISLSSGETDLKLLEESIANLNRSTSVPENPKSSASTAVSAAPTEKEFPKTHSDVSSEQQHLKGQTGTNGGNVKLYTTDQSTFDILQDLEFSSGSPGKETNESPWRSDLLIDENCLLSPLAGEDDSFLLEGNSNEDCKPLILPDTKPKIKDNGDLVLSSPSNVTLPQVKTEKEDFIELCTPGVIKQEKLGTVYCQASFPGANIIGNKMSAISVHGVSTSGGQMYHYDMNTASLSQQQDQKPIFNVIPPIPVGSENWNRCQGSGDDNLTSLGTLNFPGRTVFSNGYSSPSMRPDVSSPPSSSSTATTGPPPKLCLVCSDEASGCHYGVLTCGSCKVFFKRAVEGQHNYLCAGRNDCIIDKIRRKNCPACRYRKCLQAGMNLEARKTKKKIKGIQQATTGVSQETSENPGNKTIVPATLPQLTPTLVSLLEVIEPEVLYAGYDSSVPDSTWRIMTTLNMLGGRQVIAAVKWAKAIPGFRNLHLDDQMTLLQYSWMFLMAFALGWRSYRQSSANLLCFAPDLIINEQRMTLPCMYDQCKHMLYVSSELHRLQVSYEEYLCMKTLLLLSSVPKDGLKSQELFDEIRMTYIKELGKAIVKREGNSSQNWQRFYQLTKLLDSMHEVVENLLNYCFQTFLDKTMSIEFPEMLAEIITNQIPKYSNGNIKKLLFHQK
Test: Transrepression assay (GITAR), TNFα-β-lactamase reporter in U937 cells
Format: cell-based
Details: for EC50 / Transrepression U937 Cells GITAR Emax (%): U937 cells; for EC50: IP = inflection point; for Emax: U-937, U937 cells; for Emax / Transrepression U937 Cells GITAR Emax (%): activity repressed by 100 nM dexamethasone alone set as 100%
Outline: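 U937 cells stably carrying TNFα promoter–β-lactamase, endogenous GR, preincubated with compound 30–45 min at 37° C., then stimulated with 5 ng/ml PMA plus 100 ng/ml LPS for ~18 h. CCF2-AM read-out; repression by 100 nM dexamethasone set as 100%.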

SMILES | EC50 [nM] | Emax [%] | Transrepression U937 Cells GITAR Emax (%)
OCc1ccccc1CC[C@]1(O)CCC2=Cc3c(cnn3-c3ccc(F)cc3)C[C@@]21C1CC1 [Example 2, (4aR,5R)-4a-Cyclopropyl-1-(4-fluorophenyl)-5-{2-[2-(hydroxymethyl)phenyl]ethyl}-1,4,4a,5,6,7-hexahydrocyclopenta[f]indazol-5-ol] | 8 | 79 | –
NC(=O)C(O)c1ccccc1CC[C@]1(O)CCC2=Cc3c(cnn3-c3ccc(F)cc3)C[C@@]21C1CC1 (single isomer, unassigned) [Example 3a] | 85 | – | 72
CC[C@]12Cc3cnn(-c4ccc(F)cc4)c3C=C1CC[C@@]2(O)CCc1ncccc1S(C)(=O)=O [Example 80, (4aS,5R)-4a-Ethyl-1-(4-fluorophenyl)-5-{2-[3-(methylsulfonyl)pyridin-2-yl]ethyl}-1,4,4a,5,6,7-hexahydrocyclopenta[f]indazol-5-ol] | 56 | 70 | –
OC(C[C@]1(O)CCC2=Cc3c(cnn3-c3ccc(F)cc3)C[C@@]21C1CC1)c1ccc(F)cn1 (single isomer, unassigned) [Example 79b] | 282 | – | 54

Next, values leading:

EC50 [nM] | Emax [%] | Transrepression U937 Cells GITAR Emax (%) | SMILES
53 | 68 | – | CC[C@]12Cc3cnn(-c4ccccc4)c3C=C1CC[C@@]2(O)CCc1ncccc1S(=O)(=O)C(C)C [Example 81, (4aS,5R)-4a-Ethyl-5-{2-[3-(iso-propylsulfonyl)pyridin-2-yl]ethyl}-1-phenyl-1,4,4a,5,6,7-hexahydrocyclopenta[f]indazol-5-ol]
277 | – | 44 | CC[C@]12Cc3cnn(-c4ccccc4)c3C=C1CC[C@@]2(O)CC(O)c1ccccn1 (single isomer, unassigned) [Example 82b]
217 | – | 54 | CC[C@]12Cc3cnn(-c4ccccc4)c3C=C1CC[C@@]2(O)CC(O)c1ccccn1 (single isomer, unassigned) [Example 82a]

— patent US20120214847A1, “2-[1-PHENYL-5-HYDROXY-4a-SUBSTITUTED-HEXAHYDROCYCLOPENTA[F]INDAZOL-5-YL]ETHYL PHENYL DERIVATIVES AS GLUCOCORTICOID RECEPTOR LIGANDS” (Merck Sharp & Dohme Corp., priority 2009, published 2012)
